Laboratory results published in US20190225650A1, “PEPTIDOMIMETIC MACROCYCLES AND USE THEREOF IN REGULATING HIF1ALPHA” (AILERON THERAPEUTICS, INC., priority 2013, published 2019).
Bridge positions count the residues as written; N and C are the ends. Square brackets hold non-standard residues; d marks the D form. Peptide text beside a SMILES is read from it. R8 = C=CCCCCCC[C@@](C)(N)C(=O)O; S5 = C=CCCC[C@](C)(N)C(=O)O; Nle = CCCC[C@H](N)C(=O)O

Target: T1, flag-tagged HIF1α (AA 786-826) / His6-tagged p300 (AA 323-423) complex (Homo sapiens, UniProt Q09472)
T1 construct: His6-tagged p300 (AA 323-423); made in house; host or cells: E. coli (pETDuet vector)
Assay: HIF1α p300 displacement assay (TR FRET, +CHAPS)
Format: binding
Details: read-out: IC50 (nM) (HIF1α_p300 Displacement + CHAPS)
Experimental: The ability of peptides to displace HIF1α c-terminal trans-activation domain from p300-CH was measured by a TR FRET assay. A complex of flag-tagged HIF1α (AA 786-826) and His6-tagged p300 (AA 323-423) was co-expressed using pETDuet vector (EMDMillipore, Bellrica Mass.) and purified from E. coli in the presence of 0.1 mM ZnSO4. The complex was diluted to 300 nM final in complete assay media and competitor peptides were added. The complete assay media contained 150 mM NaCl (Sigma +S5150 or equivalent), 20 mM HEPES pH 7.4 (Boston Bioproducts, Ashland, Mass.; #BB-2076), 7.5 mM CHAPS (Thermo #28300 or equivalent), and 1 mM DTT. Protein and peptide were incubated at room temperature for 1 hour before the addition of anti-Flag-K and anti-6×HIS-D2 (CisBio, Bedford Mass.) HTRF reconstitution buffer (50 mM Phosphate pH 7, 0.8 Potassium Flouride, BSA 0.2%)^1 to a final concentration of 0.5 μM and 4 nM respectively. The reaction continued for an additional two hours at room temperature. The reaction was read on a TECAN F500 plate reader with settings recommended by CisBio. The ratio of donor to acceptor fluorescence was calculated. The resulting data was analyzed with Graphpad Prism 5.0. IC50 values were calculated for both proteins using the One Site Fit-LogIC50 equation and presented in the column “IC50 (nM) (HIF1α_p300 Displacement+CHAPS)” of Table 6. ^1 Cisbio USA, Bedford, Mass.; 61HISDLB (lot 007A), 61FG2KLB (024A), HTRF Buffer (62RB3RDF)

SMILES | IC50 [nM]
CCCC[C@@H]1NC(=O)[C@H](CC(C)C)NC(=O)[C@H](C(C)C)NC(=O)[C@@](C)(NC(=O)[C@H](CCC(=O)O)NC(=O)[C@H](CC(=O)O)NC(=O)[C@@H](NC(=O)[C@H](Cc2ccccc2)NC(C)=O)[C@@H](C)CC)CCCC=CCCCC2(CCCC=CCCC[C@](C)(C(=O)N[C@@H](CCCC)C(=O)N[C@@H](C)C(=O)N[C@@H](CC(C)C)C(N)=O)NC(=O)[C@H]([C@@H](C)CC)NC(=O)[C@H](C(C)C)NC(=O)[C@H](CC(C)C)NC2=O)NC1=O (stereo partly drawn) [SP-204] | > 700
CCCC[C@H](NC(=O)[C@H](CC(C)C)NC(=O)[C@@H](NC(=O)[C@H](C)NC(=O)[C@H](CCC(=O)O)NC(=O)[C@H](C)NC(=O)[C@@H](NC(=O)[C@H](Cc1ccccc1)NC(C)=O)[C@@H](C)CC)C(C)C)C(=O)N[C@@]1(C)CCCC=CCCC[C@@](C)(C(=O)N[C@@H](CCCC)C(=O)N[C@@H](C)C(=O)N[C@@H](CC(C)C)C(=O)N[C@@H](C)C(=O)N[C@@H](C)C(=O)N[C@H](C(N)=O)[C@@H](C)CC)NC(=O)[C@H]([C@@H](C)CC)NC(=O)[C@H](C(C)C)NC(=O)[C@H](CC(C)C)NC1=O [SP-223] (Ac-FIAEAVL[Nle][S5]LVI[S5][Nle]ALAAI-NH2; staple 9-13) | > 700
CCCC[C@H](NC(=O)[C@H](CCC(=O)O)NC(=O)[C@@H](NC(=O)[C@]1(C)CCCC=CCCC[C@](C)(NC(=O)[C@@H](NC(=O)[C@H](CCC(=O)O)NC(=O)[C@H](CCC(=O)O)NC(=O)[C@H](CC(=O)O)NC(=O)[C@@H](NC(=O)[C@H](CC(N)=O)NC(=O)[C@@H](NC(=O)[C@H](CCC(N)=O)NC(=O)[C@H](CC(=O)O)NC(=O)[C@H](CC(C)C)NC(=O)[C@H](C)NC(=O)[C@H](CCCNC(=N)N)NC(=O)[C@]2(C)CCCC=CCCC[C@](C)(NC(=O)[C@H](CCC(N)=O)NC(=O)[C@H](CC(C)C)NC(=O)[C@H](CC(C)C)NC(C)=O)C(=O)N[C@@H](CCC(=O)O)C(=O)N[C@@H](CCC(=O)O)C(=O)N[C@@H](CC(C)C)C(=O)N2)C(C)C)[C@@H](C)CC)C(C)C)C(=O)N[C@@H](CCCC)C(=O)N[C@@H](CO)C(=O)N[C@@H](CC(C)C)C(=O)N1)[C@@H](C)CC)C(=O)NCC(N)=O [SP-302] (Ac-LLQ[S5]EEL[S5]RALDQVNIDEEV[S5][Nle]SL[S5]IE[Nle]G-NH2; staple 4-8, 21-25) | > 700
CCCC[C@H](NC(=O)[C@H](CCC(=O)O)NC(=O)[C@@H](NC(=O)[C@]1(C)CCCC=CCCC[C@](C)(NC(=O)[C@@H](NC(=O)[C@H](CCC(=O)O)NC(=O)[C@H](CCC(=O)O)NC(=O)[C@H](CC(=O)O)NC(=O)[C@@H](NC(=O)[C@H](CC(N)=O)NC(=O)[C@@H](NC(=O)[C@H](CCC(N)=O)NC(=O)[C@]2(C)CCCC=CCCC[C@](C)(NC(=O)[C@H](CC(C)C)NC(=O)[C@H](CCC(=O)O)NC(=O)[C@H](CCC(=O)O)NC(=O)CNC(=O)[C@H](CCC(N)=O)NC(=O)[C@H](CC(C)C)NC(=O)[C@H](CC(C)C)NC(C)=O)C(=O)N[C@@H](CCCNC(=N)N)C(=O)N[C@@H](C)C(=O)N[C@@H](CC(C)C)C(=O)N2)C(C)C)[C@@H](C)CC)C(C)C)C(=O)N[C@@H](CCCC)C(=O)N[C@@H](CO)C(=O)N[C@@H](CC(C)C)C(=O)N1)[C@@H](C)CC)C(=O)NCC(N)=O [SP-304] (Ac-LLQGEEL[S5]RAL[S5]QVNIDEEV[S5][Nle]SL[S5]IE[Nle]G-NH2; staple 8-12, 21-25) | > 700
CCCC[C@@H]1NC(=O)[C@](C)(NC(=O)[C@@H](NC(=O)[C@H](CCC(=O)O)NC(=O)[C@H](CCC(=O)O)NC(=O)[C@H](CC(=O)O)NC(=O)[C@@H](NC(=O)[C@H](CC(N)=O)NC(=O)[C@@H](NC(=O)[C@H](CCC(N)=O)NC(=O)[C@H](CC(=O)O)NC(=O)[C@H](CC(C)C)NC(=O)[C@H](C)NC(=O)[C@H](CCCNC(=N)N)NC(=O)[C@]2(C)CCCC=CCCC[C@](C)(NC(=O)[C@H](CCC(N)=O)NC(=O)[C@H](CC(C)C)NC(=O)[C@H](CC(C)C)NC(C)=O)C(=O)N[C@@H](CCC(=O)O)C(=O)N[C@@H](CCC(=O)O)C(=O)N[C@@H](CC(C)C)C(=O)N2)C(C)C)[C@@H](C)CC)C(C)C)CCCCCCC=CCCC[C@@](C)(C(=O)NCC(N)=O)NC(=O)[C@H](CCC(=O)O)NC(=O)[C@H]([C@@H](C)CC)NC(=O)[C@H](C(C)C)NC(=O)[C@H](CC(C)C)NC(=O)[C@H](CO)NC1=O [SP-314] (Ac-LLQ[S5]EEL[S5]RALDQVNIDEEV[R8][Nle]SLVIE[S5]G-NH2; staple 4-8, 21-28) | > 700

Second part, the compound after the results:

IC50 [nM] | SMILES
> 700 | CCCC[C@@H]1NC(=O)[C@H](CC(C)C)NC(=O)[C@H](C(C)C)NC(=O)[C@](C)(NC(=O)[C@H](CCC(=O)O)NC(=O)[C@H](CC(=O)O)NC(=O)[C@@H](NC(=O)[C@H](Cc2ccccc2)NC(C)=O)[C@@H](C)CC)CCCCCCC=CCCC[C@@](C)(C(=O)N[C@@H](CCC(=O)O)C(=O)N[C@@H](CCSC)C(=O)NCC(N)=O)NC(=O)[C@H](C(C)C)NC(=O)[C@H](CC(C)C)NC(=O)[C@H](CO)NC1=O [SP-185] (Ac-FIDE[R8]VL[Nle]SLV[S5]EMG-NH2; staple 5-12)
> 700 | CCCC[C@H](NC(=O)[C@H](CCC(=O)O)NC(=O)[C@]1(C)CCCC=CCCCCCC[C@@](C)(NC(=O)[C@H](CCC(=O)O)NC(=O)[C@H](CC(=O)O)NC(=O)[C@@H](NC(=O)[C@H](Cc2ccccc2)NC(C)=O)[C@@H](C)CC)C(=O)N[C@@H](C(C)C)C(=O)N[C@@H](CC(C)C)C(=O)N[C@@H](CCSC)C(=O)N[C@@H](CO)C(=O)N[C@@H](CC(C)C)C(=O)N[C@@H](C(C)C)C(=O)N1)C(=O)NCC(N)=O [SP-186] (Ac-FIDE[R8]VLMSLV[S5]E[Nle]G-NH2; staple 5-12)
> 700 | CC[C@H](C)[C@H](NC(=O)[C@H](Cc1ccccc1)NC(C)=O)C(=O)N[C@@H](CC(=O)O)C(=O)N[C@@H](CCC(=O)O)C(=O)N[C@]1(C)CCCCCCC=CCCC[C@@](C)(C(=O)N[C@@H](CCC(=O)O)C(=O)N[C@@H](CCSC)C(=O)NCC(=O)N[C@@H](CC(C)C)C(N)=O)NC(=O)[C@H](C(C)C)NC(=O)[C@H](CC(C)C)NC(=O)[C@H](CO)NC(=O)[C@H](CCSC)NC(=O)[C@H](CC(C)C)NC(=O)[C@H](C(C)C)NC1=O [SP-187] (Ac-FIDE[R8]VLMSLV[S5]EMGL-NH2; staple 5-12)
> 700 | CC[C@H](C)[C@H](NC(=O)[C@H](Cc1ccccc1)NC(C)=O)C(=O)N[C@@H](CC(=O)O)C(=O)N[C@@H](CCC(=O)O)C(=O)N[C@]1(C)CCCCCCC=CCCC[C@@](C)(C(=O)N[C@@H](CCC(=O)O)C(=O)N[C@@H](CCSC)C(=O)NCC(=O)N[C@@H](CC(C)C)C(=O)N[C@@H](CC(=O)O)C(N)=O)NC(=O)[C@H](C(C)C)NC(=O)[C@H](CC(C)C)NC(=O)[C@H](CO)NC(=O)[C@H](CCSC)NC(=O)[C@H](CC(C)C)NC(=O)[C@H](C(C)C)NC1=O [SP-188] (Ac-FIDE[R8]VLMSLV[S5]EMGLD-NH2; staple 5-12)
> 700 | CC[C@H](C)[C@H](NC(=O)[C@H](Cc1ccccc1)NC(C)=O)C(=O)N[C@@H](CC(=O)O)C(=O)N[C@@H](CCC(=O)O)C(=O)N[C@]1(C)CCCCCCC=CCCC[C@@](C)(C(=O)N[C@@H](CCC(=O)O)C(=O)N[C@@H](CCSC)C(=O)NCC(=O)N[C@@H](CC(C)C)C(=O)N[C@@H](CC(=O)O)C(=O)N[C@@H](CCCNC(=N)N)C(N)=O)NC(=O)[C@H](C(C)C)NC(=O)[C@H](CC(C)C)NC(=O)[C@H](CO)NC(=O)[C@H](CCSC)NC(=O)[C@H](CC(C)C)NC(=O)[C@H](C(C)C)NC1=O [SP-189] (Ac-FIDE[R8]VLMSLV[S5]EMGLDR-NH2; staple 5-12)
200 to 400 | CCCC[C@H](NC(=O)[C@H](CC(C)C)NC(=O)[C@@H](NC(=O)[C@H](C)NC(=O)[C@H](CCC(=O)O)NC(=O)[C@H](C)NC(=O)[C@@H](NC(=O)[C@H](Cc1ccccc1)NC(C)=O)[C@@H](C)CC)C(C)C)C(=O)N[C@@]1(C)CCCC=CCCC[C@@](C)(C(=O)N[C@@H](CCCC)C(=O)N[C@@H](C)C(=O)N[C@@H](CC(C)C)C(=O)N[C@@H](CC(=O)O)C(=O)N[C@@H](C)C(=O)N[C@H](C(N)=O)[C@@H](C)CC)NC(=O)[C@H]([C@@H](C)CC)NC(=O)[C@H](C(C)C)NC(=O)[C@H](CC(C)C)NC1=O [SP-222] (Ac-FIAEAVL[Nle][S5]LVI[S5][Nle]ALDAI-NH2; staple 9-13)
≤ 200 | CCCC[C@H](NC(=O)[C@H](Cc1ccccc1)NC(=O)[C@@H](NC(=O)[C@H](CCC(=O)O)NC(=O)[C@H](CCC(=O)O)NC(=O)[C@H](CC(=O)O)NC(=O)[C@@H](NC(=O)[C@H](Cc1ccccc1)NC(C)=O)[C@@H](C)CC)C(C)C)C(=O)N[C@@]1(C)CCCC=CCCC[C@@](C)(C(=O)N[C@@H](CCCC)C(=O)N[C@@H](C)C(=O)N[C@@H](CC(C)C)C(=O)N[C@@H](CC(C)C)C(N)=O)NC(=O)[C@H]([C@@H](C)CC)NC(=O)[C@H](C(C)C)NC(=O)[C@H](CC(C)C)NC1=O [SP-242] (Ac-FIDEEVF[Nle][S5]LVI[S5][Nle]ALL-NH2; staple 9-13)
